Assay results taken from patent publication US6723741B2, “Benzimidazoles and benzothiazoles and uses thereof” (Synaptic Pharmaceutical Corporation, priority 1996, dated 2004).
Where two headings read alike, the source gives them in different places.

What was measured:
[1] = target: T1, human α1C adrenergic receptor (Homo sapiens, UniProt P35348); experiment: Radioligand binding assay, [3H]prazosin competition; conditions: cloned human α1C (old nomenclature; = α1A), LM(tk-) cell membranes, read-out: pKi Alpha-1 C (converted)
T1 construct: expressed in transfected cells
T1 sequence (P35348 1-466): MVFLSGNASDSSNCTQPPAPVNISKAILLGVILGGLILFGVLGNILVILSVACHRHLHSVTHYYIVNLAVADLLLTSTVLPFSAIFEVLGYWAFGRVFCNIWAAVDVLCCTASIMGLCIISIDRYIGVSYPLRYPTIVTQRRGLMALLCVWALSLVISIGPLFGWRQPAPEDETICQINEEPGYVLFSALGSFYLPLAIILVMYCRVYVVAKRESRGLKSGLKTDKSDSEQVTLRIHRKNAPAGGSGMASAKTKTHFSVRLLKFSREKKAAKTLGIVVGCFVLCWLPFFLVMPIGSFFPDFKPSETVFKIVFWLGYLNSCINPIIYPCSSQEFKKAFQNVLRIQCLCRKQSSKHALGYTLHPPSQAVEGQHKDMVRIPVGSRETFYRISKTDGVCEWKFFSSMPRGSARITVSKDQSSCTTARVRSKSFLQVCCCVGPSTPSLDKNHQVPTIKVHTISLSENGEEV
Protocol: Equilibrium competition binding assays were performed with membrane preparations from cultured LM(tk^−) cells stably transfected with the cloned human alpha adrenoreceptor subtypes except for α2b, which was expressed in Y-1 cells, using [^3H] prazosin for α1 receptors and [^3H] rauwolscine for α2 receptors. Further details of pharmacological evaluations of claimed compounds are described in Example 21.
The cloned human alpha-1 adrenergic receptor subtypes referred to throughout this application as α1A, α1B, and α1C have recently been assigned new subtype designations by the IUPHAR Nomenclature Committee as outlined in the 1995 Receptor and Ion Channel Nomenclature Supplement (Watson and Girdlestone, 1995). In the new nomenclature system the cloned human α1A receptor referred to herein was given the appellation “α1D,” while the cloned human α1C receptor referred to herein was given the appellation “α1A”. However, throughout this application and the supporting tables and figures the old nomenclature will be used to describe the cloned human alpha-1 adrenergic receptor subtypes. The old nomenclature is used throughout this application because stable cell lines expressing the cloned human alpha-1 adrenergic receptors were produced and deposited with the ATCC according to the Budapest Treaty for the Deposit of Microorganisms, under designations assigned before the nomenclature change.
The entire coding region of α1C (1401 bp), including 400 basepairs of 5′ untranslated sequence (5′ UT) and 200 p of 3′ untranslated sequences (3′ UT), was cloned into the KpnI site of the polylinker-modified pCEXV-3-derived eukaryotic expression vector, EXJ.RH. The construct involved ligation three partial overlapping fragments: a 5′ 0.6 kb HincII genomic clone, a central 1.8 EcoRI hippocampal cDNA clone, and a 3′ 0.6 Kb PstI genomic clone. The hippocampal cDNA fragment overlaps with the 5′ and 3′ genomic clones so that the HincII nad PstI sites at the 5′ and 3′ ends of the cDNA clone, respectively, were utilized for ligation. This full-length clone was cloned into the KpnI site of the expression vector, using the 5′ and 3′ KpnI sites of the fragment, derived from vector (i.e., pBluescript) and 3′-untranslated sequences, respectively. Stable cell lines were produced and selected as described above.
Transfected cells from culture flasks were scraped into 5 mL of 5 mM Tris-HCl, 5 mM EDTA, pH 7.5, and lysed by sonication. The cell lysates were centrifuged at 1000 rpm for 5 min at 4° C., and the supernatant was centrifuged at 30,000×g for 20 min at 4° C. The pellet was suspended in 50 mM Tris-HCl, 1 mM MgCl2, and 0.1% Ascorbic acid at pH 7.5. Binding of α2 antagonist [^3H] rauwolscine ([…]) to membrane preparations of LM(tk−) cells was done in a final volume of 0.25 mL and incubated at 37° C. for 20 min. Nonspecific binding was determined in the presence of 10 μM phentolamine. The reaction was stopped by filtration through GF/B filters using a cell harvester.

[2] = target: T2, human α1B adrenergic receptor (Homo sapiens, UniProt P35368); experiment: as above
T2 construct: The entire coding region of α1B (1563 bp); expressed in transfected cells
T2 sequence (P35368 1-520): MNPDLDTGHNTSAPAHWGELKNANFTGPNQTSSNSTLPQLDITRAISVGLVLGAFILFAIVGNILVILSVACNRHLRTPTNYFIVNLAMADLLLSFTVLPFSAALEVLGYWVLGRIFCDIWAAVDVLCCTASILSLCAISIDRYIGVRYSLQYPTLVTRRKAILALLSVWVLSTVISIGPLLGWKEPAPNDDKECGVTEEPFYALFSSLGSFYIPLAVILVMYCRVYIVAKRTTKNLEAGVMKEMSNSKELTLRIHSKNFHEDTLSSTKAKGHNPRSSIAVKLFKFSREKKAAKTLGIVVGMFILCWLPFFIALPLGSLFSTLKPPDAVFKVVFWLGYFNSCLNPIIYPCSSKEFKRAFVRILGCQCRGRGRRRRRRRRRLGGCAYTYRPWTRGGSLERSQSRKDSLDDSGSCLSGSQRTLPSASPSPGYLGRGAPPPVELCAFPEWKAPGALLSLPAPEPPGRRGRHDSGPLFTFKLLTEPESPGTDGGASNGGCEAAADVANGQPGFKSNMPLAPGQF

[3] = target: T3, human α2C adrenergic receptor (Homo sapiens, UniProt P18825); experiment: Agonist activity: inhibition of forskolin-stimulated cAMP synthesis; format: cell-based; conditions: for I.A (Intrinsic Activity) Alpha-2 C: maximum activity relative to maximum activity induced by norepinephrine, human α2C; for EC50: inhibition of forskolin-stimulated cAMP, stably transfected cells expressing human α2C, read-out: pEC50 Alpha-2 C (converted)
T3 construct: The entire coding region of α2C (1383 bp), including 2 bp of 5′ UT and 400 bp of 3′ UT; expressed in transfected cells
T3 sequence (P18825 1-462): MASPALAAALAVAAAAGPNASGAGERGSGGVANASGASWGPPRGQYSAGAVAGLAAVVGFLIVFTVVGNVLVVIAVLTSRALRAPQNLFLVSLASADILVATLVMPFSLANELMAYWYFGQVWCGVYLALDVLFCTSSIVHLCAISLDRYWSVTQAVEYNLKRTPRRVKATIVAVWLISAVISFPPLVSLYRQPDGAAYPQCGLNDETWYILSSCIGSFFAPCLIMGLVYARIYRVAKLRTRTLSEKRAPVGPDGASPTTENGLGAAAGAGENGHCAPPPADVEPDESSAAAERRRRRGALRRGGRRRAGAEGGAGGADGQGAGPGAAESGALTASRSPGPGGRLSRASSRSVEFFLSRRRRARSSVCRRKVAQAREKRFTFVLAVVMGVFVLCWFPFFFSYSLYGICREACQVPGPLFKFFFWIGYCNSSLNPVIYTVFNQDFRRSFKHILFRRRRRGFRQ

[4] = cloned human α1B, LM(tk-) cell membranes, [3H]prazosin, read-out: pKi Alpha-1 B (converted)

SMILES | Ki [1] | Ki [2] | I.A (Intrinsic Activity) Alpha-2 C [3] | Ki [2, 4] | EC50 [3]
c1nc2ccc(NC3=NCCS3)cc2s1 [Example 15, 6-(2-Thiazolin-2-ylamino)benzothiazole] | 5750 nM | 7240 nM | 0.88 |  | 
N#Cc1cc(NC2=NCCN2)cc2cc[nH]c12 [Example 5, 7-Cyano-5-(2-imidazolin-2-ylamino)indole] | 1450 nM |  | 1.00 | 12600 nM | 0.589 nM
c1nc2cc(NC3=NCCN3)ccc2s1 [Example 13, 5-(2-Imidazolin-2-ylamino)benzothiazole] | 708 nM |  | 1.00 | 708 nM | 0.603 nM
c1nc2ccc(NC3=NCCN3)cc2s1 [Example 14, 6-(2-Imidazolin-2-ylamino)benzothiazole] | 2340 nM | 3630 nM | 1.00 |  | 
Brc1cc(NC2=NCCN2)cc2cc[nH]c12 [Example 2, 7-Bromo-5-(2-imidazolin-2-ylamino)indole] | 19.1 nM |  | 1.00 | 26.9 nM | 0.407 nM
CC(=O)c1cc(NC2=NCCN2)cc2cc[nH]c12 [Example 6, 7-Acetyl-5-(2-imidazolin-2-ylamino)indole] | 186 nM |  | 0.90 | 56.2 nM | 40.7 nM
